Measurements as given in patent EP0319644A2, “Alkylated amide derivatives, their use and pharmaceutical compositions containing them” (THE GREEN CROSS CORPORATION, priority 1987, dated 1989).

Key:
[1] = system: water immersed restraint stress ulcerization; assay: Rat water immersed restraint stress ulcerization (Test Example 1); assay type: in vivo, male Wistar rats; conditions: dose 5 mg/kg orally 90 minutes before stress loading; for Ulcer Index (Mean ± S.B.): 7 hours immersion at 22 ± 1 °C, suspended in saline containing 10% HCO-60, sum of ulcer lengths per rat; for Inhibition rate (%): versus untreated control
Protocol: Each test compound was suspended in physiological saline containing 10% polyoxyethylene cured caster oil (HCO-60: manufactured by Nikko Chemicals), and was then tested.
(§1) The test was conducted according to the method of rat water immersed restraint stress ulcerization proposed by Okabe et al. (Jpn. J. Pharmacol., 18, 9, (1968)). That is, male Wistar rats weighing 230 to 250 g were fasted for 24 hours, put in a stress cage in the erect position, and were immersed in a thermostatic water tank at 22 ± 1 °C up to the sternal process. The rats were sacrificed 7 hours later, and the stomach was removed. The pylorus was ligated and 10 ml of physiological saline was infused into the stomach. The cardia also was ligated and dipped in 1% formalin for 5 to 10 minutes. Afterwards, the stomach was opened along the greater curvature, and any blood deposited on the mucosa in the glandular portion was wiped off gently. The length of the remaining ulcers (erosions) was measured. The sum (mm) of the length of the ulcers in each rat was defined as the ulcer index. The test material was administered orally 90 minutes before stress loading (dose: 5 mg/kg).

[2] = system: water immersed restraint stress ulcerization; assay: Rat water immersed restraint stress ulcerization, gum arabic preparation (Test Example 2); assay type: in vivo, Male Wister rats; conditions: for Ulcer Index (Mean ± S.B.) / Inhibition rate (%): dose 25 mg/kg orally, preparation with 5% gum arabic (2 ml/kg); for Ulcer Index (Mean ± S.B.): rats fasted overnight; for Inhibition rate (%): versus control; for antiulcer activity: summary in words of Table 2, no significant difference between the two compounds
Protocol: as §1
Male Wister rats weighing 200 to 220 g were fasted overnight and the preparation containing Compound 2 (S-(2-cyclohexylethyl)-N-(2-decenoyl) cysteamine) and 5% gum arabic or the preparation containing the S-oxide derivarive of Compound 2 (S-(2-cyclohexylethyl)-N-(2-decenoyl) cysteamine S-oxide) and 5% gum arabic was orally administered to each rat (2 ml/kg).
Antiulcer activity of each test compound was evaluated in the same manner as in Test Example 1.

Row | Compound | Ulcer Index (Mean ± S.B.) [1] | Inhibition rate (%) [1] | Ulcer Index (Mean ± S.B.) [2] | Inhibition rate (%) [2] | antiulcer activity [2]
1 | CCCCCCCC=CC(=O)NCCSCCC1CCCCC1 [Compound 2, S-(cyclohexylethyl)-N-(2-decenoyl) cysteamine] | 6.7 ± 1.7 mm | 69.5% | 10.0 ± 1.5 mm | 58.0% | excellent antiulcer activity
2 | CCCCCCC/C=C/C(=O)NCCSCC1CCCCN1C (stereo not drawn) [Compound 8, N-(2-decenoyl)-S-[(1-methylpiperidyl)methyl] cysteamine] | 8.0 ± 1.7 mm | 63.6% |  |  | 
3 | CCCCCCCC=CC(=O)NCC[S+]([O-])CCC1CCCCC1 (stereo not drawn) [S-oxide of Compound 2, S-(2-cyclohexylethyl)-N-(2-decenoyl) cysteamine S-oxide] |  |  | 12.8 ± 1.9 mm | 46.2% | excellent antiulcer activity
